Results taken from patent US10258610B2, “Pharmaceutical compositions comprising rifaximin, processes for their preparation and their use in the treatment of vaginal infections” (ALFASIGMA S.P.A., priority 2011, dated 2019).
Entries after “also recorded” stand apart in the source; their conditions may differ. Like-named read-outs stand apart in the source and are kept apart here.

Tests used:
Gardnerella vaginalis [1] = assay type: in vivo, New Zealand rabbits (Oryctolagus cunicolis)
Experimental: The efficacy of vaginal compositions in rifaximin containing tablets and ovules was evaluated in an animal model of bacterial infection persistent in the rabbit.
The vaginal infection model was induced by inoculation of Gardnerella vaginalis isolated from women affected by bacterial vaginosis. The bacterial strains were grown in agar of bovine red blood cells at 37° C. by adding a DIFCO-C supplement and were kept under controlled atmosphere 5% CO2 for 24-48 hours.
For developing the model of animal infection, New Zealand rabbits (Oryctolagus cunicolis) having a weight comprised between 2 and 3 kg were used.
Before the infection, the animals had been treated with 1 ml 10% enrofloxacin solution for reducing the endogenous Lactobacilli and facilitating the growth of pathogenic agent. The infection was induced by inoculating in the animals vagina 1 ml of sterile saline solution containing 106-7 UFC (Unit Forming Colony) of Gardnerella vaginalis by using a 22-24G Teflon catheter. The presence of G. vaginalis in the animals was verified before the inoculation and 24 and 48 hours after the inoculation.
The animals were inoculated twice and thrice at time intervals of three days. After 14 days the last inoculation all animals were treated with 1 ml 10% enrofloxacin solution to verify the model sensitivity to antibiotics. The treatment healed the infection, thus confirming that the model can be used to evaluate the efficacy of antibiotics administered via the intravaginal route.
The presence of G. vaginalis was verified by vaginal buffer 1, 2, 4, 10 and 14 days after the last inoculation, putting the vaginal buffers in agar plates of bovine red blood cells with DIFCO-C supplement and growing them at 37° C. for 48 hours. The presence of G. vaginalis was verified by means of microscope (1000×) morphological identification and with Gram staining.
Three and seven days after the end of the rifaximin treatment, the presence of Gardnerella vaginalis was evaluated by means of vaginal buffers as previously described.
The vaginal buffers were considered positive if 10 or more colonies were counted, and the presence of malodorous vaginal discharges was the clinical sign of the occurred infection.

[2] = Phase II clinical trial, adverse events; assay type: in vivo, human
Text: The adverse events reported by patients were registered, and the most frequent one was the rifaximin related vulvovaginal itching and burning.
In Table 23 it is reported the percentage of patients belonging to different treatment groups who reported adverse events both systemic and local, vulvovaginal itching and burning related to rifaximin.

Atopobium = assay: Vaginal microbiota by quantitative real-time PCR; assay type: in vivo; conditions: for Target DNA/genomic vaginal DNA, Atopobium / Target DNA/genomic or vaginal DNA, Atopobium: average; for Target DNA/genomic or vaginal DNA, Atopobium: visit V4, patients maintaining recovery
Experimental: (§1) During the clinical trial, described in Example 12, samples of vaginal cleansing were collected and the composition of vaginal microbiota was determined by means of the quantitative real-time PCR.
(§2) With the real-time PCR the DNA samples are amplified with gender- and/or species-specific primers whose target is the 16S rRNA bacterial gene or the 16S-23 S rRNA region.
(§3) In particular, specific probes were used for the Lactobacillus gender, for Gardnerella vaginalis, for Atopobium, for Prevotella and for Veillonella, since they represent the main bacterial groups suffering from modifications in case of bacterial vaginosis.
(§4) Table 28 reports the values of real-time PCR relating to bacterial genders and species quantified in vaginal cleansings of women belonging to the different treatment groups, expressed as total target DNA ng/genomic DNA μg, for microbial species tested for each group at the visit V3 if compared to the visit V1.
(§5) The composition of vaginal microbiota was determined by means of the quantitative real-time PCR technique of patients maintaining their recovery at the visit V4, 30-40 days after the end of the therapy, and the DNA samples amplified with gender- and/or species-specific primers were evaluated by means of the real-time PCR technique.
(§6) Table 29 reports the values of real-time PCR relating to target bacterial genders and species quantified in vaginal rinses of women belonging to the different treatment groups, expressed as total target DNA ng/genomic DNA μg, for microbial species tested for each group at the visit V4 when compared to the values observed at the visit V1 of all treated patients.

Gardnerella vaginalis [3] = assay: Vaginal microbiota by quantitative real-time PCR; assay type: in vivo; conditions: for Target DNA/genomic vaginal DNA, Gardnerella vaginalis / Target DNA/genomic or vaginal DNA, Gardnerella vaginalis: average; for Target DNA/genomic or vaginal DNA, Gardnerella vaginalis: visit V4, patients maintaining recovery
Experimental: as §1, §2, §3, §4, §5, §6

Lactobacillus = assay: Vaginal microbiota by quantitative real-time PCR; assay type: in vivo; conditions: for Target DNA/genomic vaginal DNA, Lactobacillus / Target DNA/genomic or vaginal DNA, Lactobacillus: average; for Target DNA/genomic or vaginal DNA, Lactobacillus: visit V4, patients maintaining recovery; for increase of Lactobacilli concentration: visit V4
Experimental: as §1, §2, §3, §4, §5, §6

Prevotella = assay: Vaginal microbiota by quantitative real-time PCR; assay type: in vivo; conditions: for Target DNA/genomic vaginal DNA, Prevotella / Target DNA/genomic or vaginal DNA, Prevotella: average; for Target DNA/genomic or vaginal DNA, Prevotella: visit V4, patients maintaining recovery
Experimental: as §1, §2, §3, §4, §5, §6

Veillonella = assay: Vaginal microbiota by quantitative real-time PCR; assay type: in vivo; conditions: average; for Target DNA/genomic or vaginal DNA, Veillonella: visit V4, patients maintaining recovery
Experimental: as §1, §2, §3, §4, §5, §6

[4] = Group A: 1 tablet 100 mg × 5 days
[5] = Group B: 1 tablet 25 mg × 5 days
[6] = Group C: 1 tablet 100 mg × 2 days
[7] = all groups treated with rifaximin, compared to placebo
[8] = visit V1 (before therapy), Group A: 1 tablet 100 mg × 5 days
[9] = visit V1 (before therapy), Group B: 1 tablet 25 mg × 5 days
[10] = visit V1 (before therapy), Group C: 1 tablet 100 mg × 2 days
[11] = visit V3, Group A: 1 tablet 100 mg × 5 days
[12] = visit V3, Group B: 1 tablet 25 mg × 5 days
[13] = visit V3, Group C: 1 tablet 100 mg × 2 days

CO[C@H]1/C=C/O[C@@]2(C)Oc3c(C)c(O)c4c(O)c(c5c(nc6cc(C)ccn65)c4c3C2=O)NC(=O)/C(C)=C\C=C\[C@H](C)[C@H](O)[C@@H](C)[C@@H](O)[C@@H](C)[C@H](OC(C)=O)[C@@H]1C [Rifaximin]
adverse event during treatment (Gardnerella vaginalis [1]; rabbit, in vivo): No adverse event was observed
eradication of the infection (presence of Gardnerella vaginalis) (Gardnerella vaginalis [1]; seven days after the end of the treatment, tablets and ovules, 1.5 to 12.5 mg): negative for 7 days after the end of the treatment
Eradication (Gardnerella vaginalis [1]; vaginal ovules, rifaximin dose 1.5 mg, after 3 days): 100%
Eradication (Gardnerella vaginalis [1]; vaginal ovules, rifaximin dose 1.5 mg, after 7 days): 100%
Eradication (Gardnerella vaginalis [1]; vaginal ovules, rifaximin dose 3 mg, after 3 days): 88%
Eradication (Gardnerella vaginalis [1]; vaginal ovules, rifaximin dose 3 mg, after 7 days): 100%
Eradication (Gardnerella vaginalis [1]; vaginal ovules, rifaximin dose 6 mg, after 3 days): 88%
Eradication (Gardnerella vaginalis [1]; vaginal ovules, rifaximin dose 6 mg, after 7 days): 100%
Eradication (Gardnerella vaginalis [1]; vaginal ovules, rifaximin dose 12.5 mg, after 3 days): 100%
Eradication (Gardnerella vaginalis [1]; vaginal ovules, rifaximin dose 12.5 mg, after 7 days): 100%
Eradication (Gardnerella vaginalis [1]; vaginal tablets, rifaximin dose 1.5 mg, after 3 days): 88%
Eradication (Gardnerella vaginalis [1]; vaginal tablets, rifaximin dose 1.5 mg, after 7 days): 100%
Eradication (Gardnerella vaginalis [1]; vaginal tablets, rifaximin dose 3 mg, after 3 days): 63%
Eradication (Gardnerella vaginalis [1]; vaginal tablets, rifaximin dose 3 mg, after 7 days): 100%
Eradication (Gardnerella vaginalis [1]; vaginal tablets, rifaximin dose 6 mg, after 3 days): 88%
Eradication (Gardnerella vaginalis [1]; vaginal tablets, rifaximin dose 6 mg, after 7 days): 100%
Eradication (Gardnerella vaginalis [1]; vaginal tablets, rifaximin dose 12.5 mg, after 3 days): 100%
Eradication (Gardnerella vaginalis [1]; vaginal tablets, rifaximin dose 12.5 mg, after 7 days): 100%
Patients with adverse events [2, 4]: 35.7%
Patients with vulvovaginal burning [2, 4]: 3.6%
Patients with vulvovaginal itching [2, 4]: 25.0%
Patients with adverse events [2, 5]: 34.6%
Patients with vulvovaginal burning [2, 5]: 19.2%
Patients with vulvovaginal itching [2, 5]: 19.2%
Patients with adverse events [2, 6]: 7.7%
Patients with vulvovaginal burning [2, 6]: 3.8%
Patients with vulvovaginal itching [2, 6]: 3.8%
rifaximin related vulvovaginal candidiasis during treatment ([2]; any of the treated groups): none of the treated groups showed any case of rifaximin-related vulvovaginal candidiasis; also recorded: No rifaximin related vulvovaginal candidiasis
adverse event in the clinical study ([2]; patients treated with 25 mg and 100 mg rifaximin in vaginal tablets): did not show any particular adverse event
change of Atopopium concentration by real-time PCR (Atopobium; [7]): reduction
Target DNA/genomic vaginal DNA, Atopobium (Atopobium; [8]): 93.07 ng/µg
Target DNA/genomic vaginal DNA, Atopobium (Atopobium; [9]): 108.2 ng/µg
Target DNA/genomic vaginal DNA, Atopobium (Atopobium; [10]): 170.4 ng/µg
Target DNA/genomic vaginal DNA, Atopobium (Atopobium; [11]): 61.46 ng/µg
Target DNA/genomic vaginal DNA, Atopobium (Atopobium; [12]): 48.8 ng/µg
Target DNA/genomic vaginal DNA, Atopobium (Atopobium; [13]): 59.99 ng/µg
Target DNA/genomic or vaginal DNA, Atopobium (Atopobium; [4]): 5.348 ng/µg
Target DNA/genomic or vaginal DNA, Atopobium (Atopobium; [5]): 28.25 ng/µg
Target DNA/genomic or vaginal DNA, Atopobium (Atopobium; [6]): 139.9 ng/µg
change of Gardnerella vaginalis concentration by real-time PCR (Gardnerella vaginalis [3]; [7]): reduction
Target DNA/genomic vaginal DNA, Gardnerella vaginalis (Gardnerella vaginalis [3]; [8]): 34.92 ng/µg
Target DNA/genomic vaginal DNA, Gardnerella vaginalis (Gardnerella vaginalis [3]; [9]): 119.4 ng/µg
Target DNA/genomic vaginal DNA, Gardnerella vaginalis (Gardnerella vaginalis [3]; [10]): 66.74 ng/µg
Target DNA/genomic vaginal DNA, Gardnerella vaginalis (Gardnerella vaginalis [3]; [11]): 23.56 ng/µg
Target DNA/genomic vaginal DNA, Gardnerella vaginalis (Gardnerella vaginalis [3]; [12]): 66.26 ng/µg
Target DNA/genomic vaginal DNA, Gardnerella vaginalis (Gardnerella vaginalis [3]; [13]): 29.44 ng/µg
Target DNA/genomic or vaginal DNA, Gardnerella vaginalis (Gardnerella vaginalis [3]; [4]): 3.067 ng/µg
Target DNA/genomic or vaginal DNA, Gardnerella vaginalis (Gardnerella vaginalis [3]; [5]): 17.57 ng/µg
Target DNA/genomic or vaginal DNA, Gardnerella vaginalis (Gardnerella vaginalis [3]; [6]): 75.09 ng/µg
change of Lactobacilli by real-time PCR (Lactobacillus; all groups treated with rifaximin): Lactobacilli increase
Target DNA/genomic vaginal DNA, Lactobacillus (Lactobacillus; [8]): 16.83 ng/µg
Target DNA/genomic vaginal DNA, Lactobacillus (Lactobacillus; [9]): 10.06 ng/µg
Target DNA/genomic vaginal DNA, Lactobacillus (Lactobacillus; [10]): 12.66 ng/µg
Target DNA/genomic vaginal DNA, Lactobacillus (Lactobacillus; [11]): 20.09 ng/µg
Target DNA/genomic vaginal DNA, Lactobacillus (Lactobacillus; [12]): 33.78 ng/µg
Target DNA/genomic vaginal DNA, Lactobacillus (Lactobacillus; [13]): 25.36 ng/µg
Target DNA/genomic or vaginal DNA, Lactobacillus (Lactobacillus; [4]): 21.3 ng/µg
Target DNA/genomic or vaginal DNA, Lactobacillus (Lactobacillus; [5]): 39.57 ng/µg
Target DNA/genomic or vaginal DNA, Lactobacillus (Lactobacillus; [6]): 8.959 ng/µg
increase of Lactobacilli concentration (Lactobacillus; group A: tablet 100 mg rifaximin for five days): twentyfold
increase of Lactobacilli concentration (Lactobacillus; group B: tablet 25 mg rifaximin for five days): fortyfold
increase of Lactobacilli concentration (Lactobacillus; group C: tablet 100 mg rifaximin for two days): eightfold
change of Prevotella concentration by real-time PCR (Prevotella; [7]): reduction
Target DNA/genomic vaginal DNA, Prevotella (Prevotella; [8]): 18.8 ng/µg
Target DNA/genomic vaginal DNA, Prevotella (Prevotella; [9]): 18.47 ng/µg
Target DNA/genomic vaginal DNA, Prevotella (Prevotella; [10]): 17.91 ng/µg
Target DNA/genomic vaginal DNA, Prevotella (Prevotella; [11]): 12.2 ng/µg
Target DNA/genomic vaginal DNA, Prevotella (Prevotella; [12]): 3.712 ng/µg
Target DNA/genomic vaginal DNA, Prevotella (Prevotella; [13]): 7.248 ng/µg
Target DNA/genomic or vaginal DNA, Prevotella (Prevotella; [4]): 0.04296 ng/µg
Target DNA/genomic or vaginal DNA, Prevotella (Prevotella; [5]): 2.345 ng/µg
Target DNA/genomic or vaginal DNA, Prevotella (Prevotella; [6]): 54 ng/µg
Target DNA/genomic vaginal DNA, Veillonella (Veillonella; [8]): 0.04128 ng/µg
Target DNA/genomic vaginal DNA, Veillonella (Veillonella; [9]): 0.03492 ng/µg
Target DNA/genomic vaginal DNA, Veillonella (Veillonella; [10]): 0.2214 ng/µg
Target DNA/genomic vaginal DNA, Veillonella (Veillonella; [11]): 0.007807 ng/µg
Target DNA/genomic vaginal DNA, Veillonella (Veillonella; [12]): 0.01761 ng/µg
Target DNA/genomic vaginal DNA, Veillonella (Veillonella; [13]): 0.005642 ng/µg
Target DNA/genomic or vaginal DNA, Veillonella (Veillonella; [4]): 0 ng/µg
Target DNA/genomic or vaginal DNA, Veillonella (Veillonella; [5]): 0 ng/µg
Target DNA/genomic or vaginal DNA, Veillonella (Veillonella; [6]): 0.2748 ng/µg
